Laboratory results as given in patent publication US5061794A, “Cephalosporin derivatives, and antibacterial agents” (priority 1986, dated 1991).
≈ marks a conversion by molar mass, not a printed value. Read-outs that look alike come from different tables or passages of the source.

Key:
[1] = tested on: E. coli CSH(RE45); test: microbe, parasite or virus in culture; type: cell-based; settings: Escherichia coli, 16 h, read-out: Minimum Inhibitory Concentration (MIC), *E. coli CSH(RE45), lactamase-producing strain; 10^6 CFU/ml
Experimental: (§1) The in vitro antibacterial activities of the compounds of the present invention against various microorganisms, were measured by the following agar plate dilution method. One platinum loopfull of each test microorganism incubated overnight in Mueller Hinton broth, was inoculated to Mueller Hinton agar (inoculum size: 10^6 CFU/ml). Such culture media containing various antibiotics in various concentrations were prepared. After incubation at 37° C. for 16 hours, the minimum inhibitory concentrations (MIC: μg/ml) were measured.

[2] = tested on: E. coli CSH2 (RK1); test: microbe, parasite or virus in culture; type: cell-based; settings: Escherichia coli, 16 h, read-out: Minimum Inhibitory Concentration (MIC), *E. coli CSH2 (RK1), lactamase-producing strain; 10^6 CFU/ml
Experimental: as §1

[3] = tested on: E. cloacae 963; test: in vitro antibacterial activity, agar plate dilution method (MIC); type: cell-based; settings: 10^6 CFU/ml
Experimental: as §1

[4] = tested on: E. coli NIHJ JC2; test: as above; type: cell-based; settings: Escherichia coli, NIHJJC2, 16 h, read-out: Minimum Inhibitory Concentration (MIC), E. coli NIHJ JC2, 10^6 CFU/ml, 37° C.
Experimental: as §1

[5] = tested on: K. pneumoniae No. 42; test: as above; type: cell-based; settings: Klebsiella pneumoniae, NO.42, 16 h, read-out: Minimum Inhibitory Concentration (MIC), *K. pneumoniae No. 42, lactamase-producing strain; 10^6 CFU/ml
Experimental: as §1

[6] = tested on: P. vulgaris No. 33; test: as above; type: cell-based; settings: Proteus vulgaris, NO.33, 16 h, read-out: Minimum Inhibitory Concentration (MIC), *P. vulgaris No. 33, lactamase-producing strain; 10^6 CFU/ml
Experimental: as §1

[7] = tested on: K. oxytoca GN10650; test: as above; type: cell-based; settings: Klebsiella oxytoca, 10^6 CFU/ml
Experimental: as §1

[8] = tested on: S. marcescens No. 16-2; test: as above; type: cell-based; settings: Serratia marcescens, NO.162, 16 h
Experimental: as §1

[9] = tested on: P. vulgaris HX-19; test: as above; type: cell-based; settings: Proteus vulgaris, HX19, 16 h, read-out: Minimum Inhibitory Concentration (MIC)
Experimental: as §1

[10] = tested on: S. aureus 209P NIHJ-JC1; test: as above; type: cell-based; settings: Staphylococcus aureus, 16 h
Experimental: as §1

[11] = tested on: K. pneumoniae PCI-602; test: as above; type: cell-based; settings: Klebsiella pneumoniae, PCI602, 16 h, 10^6 CFU/ml
Experimental: as §1

[12] = tested on: E. coli GN5482; test: as above; type: cell-based; settings: Escherichia coli, GN5482, 16 h
Experimental: as §1

[13] = tested on: S. marcescens IAM 1184; test: as above; type: cell-based; settings: Serratia marcescens, IAM1184, 16 h, read-out: Minimum Inhibitory Concentration (MIC)
Experimental: as §1

[14] = tested on: E. cloacae Nek 39; test: as above; type: cell-based; settings: Enterobacter cloacae, NEK39, 16 h, 10^6 CFU/ml
Experimental: as §1

[15] = tested on: Ps. aeruginosa AK 109; test: as above; type: cell-based, Pseudomonas aeruginosa; settings: Pseudomonas aeruginosa, AK109, 16 h
Experimental: as §1

[16] = tested on: Ps. aeruginosa AKR17; test: as above; type: cell-based, Pseudomonas aeruginosa; settings: Pseudomonas aeruginosa, 10^6 CFU/ml
Experimental: as §1

[17] = tested on: Ps. aeruginosa IF03445; test: as above; type: cell-based, Pseudomonas aeruginosa; settings: Pseudomonas aeruginosa, 10^6 CFU/ml
Experimental: as §1

[18] = tested on: Ps. cepacia 23; test: as above; type: cell-based, Pseudomonas cepacia; settings: Burkholderia cepacia, 16 h; Ps. cepacia 23; 10^6 CFU/ml; read-out: Minimum Inhibitory Concentration (MIC)
Experimental: as §1

[19] = tested on: A. calcoaceticus No. 4; test: as above; type: cell-based, Acinetobacter calcoaceticus; settings: Acinetobacter calcoaceticus, NO.4, 16 h, 10^6 CFU/ml
Experimental: as §1

[20] = tested on: M. morganii GN5407; test: as above; type: cell-based; settings: Morganella morganii, GN5407, 16 h, read-out: Minimum Inhibitory Concentration (MIC), *M. morganii GN5407, lactamase-producing strain; 10^6 CFU/ml
Experimental: as §1

[21] = Enterobacter cloacae, 963, 16 h, read-out: Minimum Inhibitory Concentration (MIC), E. cloacae 963
[22] = 16 h, *K. oxytoca GN10650, lactamase-producing strain, read-out: Minimum Inhibitory Concentration (MIC)
[23] = read-out: Minimum Inhibitory Concentration (MIC), *S. marcescens No. 16-2, lactamase-producing strain, 10^6 CFU/ml
[24] = read-out: Minimum Inhibitory Concentration (MIC)
[25] = read-out: Minimum Inhibitory Concentration (MIC), K. pneumoniae PCI-602
[26] = S. marcescens IAM 1184, 10^6 CFU/ml
[27] = read-out: Minimum Inhibitory Concentration (MIC), *E. cloacae Nek 39, lactamase-producing strain
[28] = read-out: Minimum Inhibitory Concentration (MIC), Ps. aeruginosa AK 109, 10^6 CFU/ml
[29] = 16 h, Ps. aeruginosa AKR17, read-out: Minimum Inhibitory Concentration (MIC)
[30] = IF03445, 16 h, read-out: Minimum Inhibitory Concentration (MIC), Ps. aeruginosa IF03445
[31] = read-out: Minimum Inhibitory Concentration (MIC), A. calcoaceticus No. 4
[32] = Enterobacter cloacae, 16 h, E. cloacae 963, read-out: Minimum Inhibitory Concentration (MIC)
[33] = GN10650, 16 h, read-out: Minimum Inhibitory Concentration (MIC), *K. oxytoca GN10650, lactamase-producing strain
[34] = Ps. aeruginosa AK 109, 10^6 CFU/ml, read-out: Minimum Inhibitory Concentration (MIC)
[35] = 16 h, Ps. aeruginosa IF03445, read-out: Minimum Inhibitory Concentration (MIC)
[36] = read-out: Minimum Inhibitory Concentration (MIC), S. aureus 209P NIHJ-JC1, 10^6 CFU/ml, 37° C., 16 hours
[37] = A. calcoaceticus No. 4, read-out: Minimum Inhibitory Concentration (MIC)
[38] = read-out: Minimum Inhibitory Concentration (MIC), *E. coli GN5482, lactamase-producing strain, 10^6 CFU/ml

Row | Structure (SMILES) | MIC [1] [µg/mL] | MIC [2] [µg/mL] | MIC [4] [µg/mL] | MIC [5] [µg/mL] | MIC [6] [µg/mL] | MIC [8, 23] [µg/mL] | MIC ([9]; P. vulgaris HX-19, 10^6 CFU/ml) [µg/mL] | MIC [10, 24] [µg/mL] | MIC [11, 25] [µg/mL] | MIC [12, 24] [µg/mL] | MIC [13, 26] [µg/mL] | MIC [14, 27] [µg/mL] | MIC [15, 28] [µg/mL] | MIC [16, 29] [µg/mL] | MIC [17, 30] [µg/mL] | MIC [18] [µg/mL] | MIC [19, 31] [µg/mL] | MIC [3, 32] [µg/mL] | MIC [7, 33] [µg/mL] | MIC [19, 37] [µg/mL] | also measured
1 | Nc1nc(C(=NOCc2ccccc2)C(=O)NC2C(=O)N3C(C(=O)O)=C(CSc4nc(C(=O)O)c(-c5ccc(O)c(O)c5)s4)CSC23)cs1 (stereo not drawn) [Ex. 57] | 0.1 (≈ 0.135 µM) | 0.0125 (≈ 0.0169 µM) | 0.78 (≈ 1.05 µM) | 0.1 (≈ 0.135 µM) | 0.025 (≈ 0.0337 µM) | 6.25 (≈ 8.44 µM) | < 0.006 | 3.12 (≈ 4.21 µM) | < 0.006 | 3.12 (≈ 4.21 µM) | 0.1 (≈ 0.135 µM) | 0.39 (≈ 0.526 µM) | 6.25 (≈ 8.44 µM) | > 100 | 3.12 (≈ 4.21 µM) | < 0.006 | 0.39 (≈ 0.526 µM) | – | – | – | MIC [3, 21]: 0.05 µg/mL (≈ 0.0675 µM); MIC [7, 22]: 25 µg/mL (≈ 33.7 µM)
2 | CON=C(C(=O)NC1C(=O)N2C(C(=O)O)=C(CSc3nc(-c4ccc(O)c(O)c4)c(CC(=O)O)s3)CSC12)c1csc(N)n1 (stereo not drawn) [compound 58, disodium 7β-[2-(2-aminothiazol-4-yl)-2-methoxyiminoacetamido]-3-[4-(3,4-dihydroxyphenyl)-5-carboxylatemethylthiazol-2-yl]thiomethyl-3-cephem-4-carboxylate] | 0.39 | 0.0125 | 0.39 | 0.1 | 0.025 | – | – | 12.5 | < 0.006 | 3.12 | 0.1 | 1.56 | – | > 100 | – | 0.025 | 0.39 | 0.1 | 12.5 | – | MIC [8, 24]: 3.12 µg/mL; MIC [9]: 0.0125 µg/mL; MIC [15, 34]: > 100 µg/mL; MIC [17, 35]: 25 µg/mL
3 | CC(C)(O/N=C(\C(=O)N[C@@H]1C(=O)N2C(C(=O)O)=C(CSc3nnc(-c4ccccc4)o3)CS[C@H]12)c1csc(N)n1)C(=O)O [compound 3, disodium 7β-[2-(2-aminothiazol-4-yl)-2-(1-carboxylate-1-methylethoxyimino)acetamido]3-(5-phenyl-1,3,4-oxadiazol-2-yl) thiomethyl-3-cephem-4-carboxylate, reference compound] | 1.56 | 1.56 | 3.12 | 3.12 | 0.39 | – | < 0.006 | – | 0.1 | 3.12 | – | – | – | > 100 | – | – | – | – | 3.12 | 100 | MIC [3, 21]: 6.25 µg/mL; MIC ([8]; *S. marcescens No. 16-2, lactamase-producing strain, 10^6 CFU/ml, read-out: Minimum Inhibitory Concentration (MIC)): 25 µg/mL; MIC [10, 36]: 6.25 µg/mL; MIC [20]: 1.56 µg/mL; MIC [13]: 1.56 µg/mL; MIC ([14]; *E. cloacae Nek 39, lactamase-producing strain, read-out: Minimum Inhibitory Concentration (MIC)): 25 µg/mL; MIC [15, 34]: 50 µg/mL; MIC [17, 35]: 50 µg/mL
4 | CC(=O)Oc1ccc(-c2nc(SCC3=C(C(=O)O)N4C(=O)C(NC(=O)C(=NOC(C)(C)C(=O)O)c5csc(N)n5)C4SC3)sc2CC(=O)O)cc1OC(C)=O (stereo not drawn) [Example 59 (II), trisodium 7β-[2-(2-aminothiazol-4-yl)-2-(1-carboxylate-1-methylethoxyimino)acetamido]-3-[4-(3,4-diacetoxyphenyl)-5-carboxylatemethylthiazol-2-yl]-thiomethyl-3-cephem-4-carboxylate] | 0.05 | 0.025 | 3.12 | 0.2 | 0.05 | 0.78 | 0.025 | – | – | – | 0.2 | 0.2 | 1.56 | – | 1.56 | < 0.006 | – | 0.2 | 0.2 | 0.2 | MIC ([10]; S. aureus 209P NIHJ-JC1, 10^6 CFU/ml, 37° C., 16 hours, read-out: Minimum Inhibitory Concentration (MIC)): 50 µg/mL; MIC ([11]; K. pneumoniae PCI-602, read-out: Minimum Inhibitory Concentration (MIC)): 0.025 µg/mL; MIC [12, 38]: 1.56 µg/mL; MIC ([16]; AKR17, 16 h, read-out: Minimum Inhibitory Concentration (MIC), Ps. aeruginosa AKR17): 1.56 µg/mL
5 | Nc1nc(C(=NOC2CCCC2)C(=O)NC2C(=O)N3C(C(=O)O)=C(CSc4nc(C(=O)O)c(-c5ccc(O)c(O)c5)s4)CSC23)cs1 (stereo not drawn) [Ex. 54, disodium 78-[2-(2-aminothiazol-4-yl)-2-cyclopentyloxyiminoacetamido]-3-[4-carboxylate-5-(3,4-dihydroxyphenyl)thiazol-2-yl]thiomethyl-3-cephem-4-carboxylate] | 3.12 | 0.1 | 1.56 | 0.1 | 0.025 | 1.56 | < 0.006 | 3.12 | < 0.006 | – | 0.05 | 0.2 | – | > 100 | 1.56 | < 0.006 | – | 0.1 | 1.56 | 0.2 | MIC [12, 38]: 1.56 µg/mL; MIC [15, 24]: 12.5 µg/mL
6 | C=CCON=C(C(=O)NC1C(=O)N2C(C(=O)O)=C(CSc3nc(C(=O)O)c(-c4ccc(O)c(O)c4)s3)CSC12)c1csc(N)n1 (stereo not drawn) [Ex. 55, disodium 78-[2-allyloxyimino-2-(2-aminothiazol-4-yl)acetamido]-3-[4-carboxylate-5-(3,4-dihydroxyphenyl)thiazol-2-yl]thiomethyl-3-cephem-4-carboxylate] | 0.1 | 0.0125 | 0.78 | 0.1 | 0.025 | – | < 0.006 | – | < 0.006 | 3.12 | 0.1 | 0.39 | 6.25 | > 100 | 3.12 | 0.025 | 0.1 | 0.1 | – | – | MIC [7, 22]: 50 µg/mL; MIC [8, 24]: 3.12 µg/mL; MIC [10, 36]: 6.25 µg/mL
